These results are taken from US11613546B2, “Substituted pyridotriazine compounds and uses thereof” (Gilead Sciences, Inc., priority 2021, dated 2023).

Where two headings read alike, the source gives them in different places.

What is called CC50 is the concentration giving 50% cytotoxicity.

Common to all, as to assay type: cell-based
For one data set, the system named is HIV-1 (IIIB). The data set can be described thus: Antiviral assay in MT-4 cells. The following applies: Human immunodeficiency virus 1, IIIB, MT4, 120 h, HIV-1 IIIB infected MT-4 cells, 5 days, Cell Titer Glo; read-out: MT4 EC50. The procedure:
Antiviral Assay in MT-4 Cells
(§1) Compounds were tested in a high-throughput 384-well assay format for their ability to inhibit the replication of HIV-1 (IIIB) in MT-4 cells. Compounds were serially diluted (1:3) in DMSO on 384-well polypropylene plates and further diluted 200-fold into complete RPMI media (10% FBS, 1% P/S) using the Biotek Micro Flow and Labcyte ECHO acoustic dispenser. Each plate contained up to 8 test compounds, with negative (No Drug Control) and 5 μM AZT positive controls. MT-4 cells were pre-infected with 10 μL of either RPMI (mock-infected) or a fresh 1:250 dilution of HIV-1 IIIB concentrated virus stock. Infected and uninfected MT-4 cells were further diluted in complete RPMI media and added to each plate using a Micro Flow dispenser. After 5 days incubation in a humidified and temperature controlled incubator (37° C.), Cell Titer Glo (Promega) was added to the assay plates and chemiluminescence read using an Envision plate-reader. EC50 values were defined as the compound concentration that causes a 50% decrease in luminescence signal, and were calculated using a sigmoidal dose-response model to generate curve fits.
For orientation: In ATP-based viability assays light output follows the ATP content of the culture.

A short description of data set [1]: Cytotoxicity assay in MT-4 cells. The following applies: human. Here is the method: as §1, with “fits. Cytotoxicity Assay in MT-4 Cells Assays were performed as above except uninfected MT-4 cells were added to each well containing test compound. In addition, 10 μM puromycin was added to the last column of each assay plate to assess a base level of cytotoxicity.” for “fits.”

The next data set concerns pLai RLuc reporter virus. The data set can be described thus: HIV MT-4 serum shift antiviral reporter assay. The following applies: Human immunodeficiency virus 1, 72 h. Here is the method: To quantify the amount of protein binding to human serum, compounds were serially diluted (1:3) in DMSO and acoustically transferred onto 384-well assay plates via a Labcyte ECHO robot. Each plate contained up to 8 test compounds, including negative and positive controls, (DMSO, 5 μM AZT respectively). Assay plates were prepared in duplicate, and tested in either CCM (cell culture media) or HS/CCM (human serum/cell culture media). MT-4 cells were first pre-infected with pLai RLuc reporter virus for 2 h at 37° C., then further diluted in either CCM (RPMI media, 10% FBS, 1% P/S) or HS/CCM (RPMI media, 10% FBS, 50% HS, 1% P/S), and subsequently added to each plate using a Biotek Micro Flow dispenser. After a 72-h incubation in a humidified and temperature controlled incubator (37° C.), Renilla Glo (Promega) was added to all assay plates and chemiluminescence read using an Envision plate-reader. EC50 values were defined as the compound concentration that causes a 50% decrease in luminescence signal, and were calculated using a sigmoidal dose-response model to generate curve fits. To determine the amount of protein binding, EC50 fold shifts (or EC50 shifts) were calculated by dividing EC50 (HS/CCM)/EC50 (CCM).
A general note: Reporter assays use an easily measured gene product as a stand-in for the process of interest.

Where [2] appears, read: uninfected MT-4 cells, 5 days, Cell Titer Glo, read-out: CC50.
Setting [3] is: read-out: RLUC 50% HS (nM), HS/CCM: 50% human serum, 72 h, Renilla Glo.
Setting [4] is: read-out: RLUC CCM (nM), cell culture media (RPMI, 10% FBS), 72 h, Renilla Glo.

For `C[C@@H]1CCCCN2CN1n1cc(C(=O)NCc3c(F)cc(F)cc3F)c(=O)c(O)c1C2=O` [Example C17, (1S,2R)-9-hydroxy-2-methyl-8,10-dioxo-N-(2,4,6-trifluorobenzyl)-3,4,5,6,8,10-hexahydro-2H-1,7-methanopyrido[1,2-b][1,2,5]triazecine-11-carboxamide], the EC50 in the data set with HIV-1 (IIIB) worked out at 0.91 nM; in the data set with pLai RLuc reporter virus (setting [3]), 7.12 nM; with pLai RLuc reporter virus (setting [4]) it was 0.16 nM. Moreover, the CC50 at 5 days in data set [1] (setting [2]) is 11200 nM.

With `CC(C)[C@@H]1C=C[C@H](C)N2CN1n1cc(C(=O)NCc3c(F)cc(F)cc3F)c(=O)c(O)c1C2=O` [Example C74, (1S,2R,5S)-8-hydroxy-2-isopropyl-5-methyl-7,9-dioxo-N-(2,4,6-trifluorobenzyl)-2,5,7,9-tetrahydro-1,6-methanopyrido[1,2-b][1,2,5]triazonine-10-carboxamide], the EC50 in the data set with HIV-1 (IIIB) was 0.9 nM; in the data set with pLai RLuc reporter virus (setting [3]) it was 325 nM; in the data set on pLai RLuc reporter virus (setting [4]) it was 0.47 nM. The CC50 at 5 days in data set [1] (setting [2]) worked out at 6810 nM.

As to `C[C@H]1CC[C@@H](CF)N2CN1C(=O)c1c(O)c(=O)c(C(=O)NCc3c(F)cc(F)cc3F)cn12` [Example C77, (1S,2S,5S)-2-(fluoromethyl)-8-hydroxy-5-methyl-7,9-dioxo-N-(2,4,6-trifluorobenzyl)-2,3,4,5,7,9-hexahydro-1,6-methanopyrido[1,2-b][1,2,5]triazonine-10-carboxamide], the EC50 with HIV-1 (IIIB) is 2 nM; with pLai RLuc reporter virus (setting [3]) it was 296 nM; in the data set on pLai RLuc reporter virus (setting [4]), 1.14 nM. Moreover, the cytotoxic concentration (CC50) at 5 days in data set [1] (setting [2]) turned out to be 15700 nM.

Consider `C[C@@H]1C=CCN2CN1n1cc(C(=O)NCc3c(F)cc(F)cc3F)c(=O)c(O)c1C2=O` [Example C70, (1S,2R)-8-hydroxy-2-methyl-7,9-dioxo-N-(2,4,6-trifluorobenzyl)-2,5,7,9-tetrahydro-1,6-methanopyrido[1,2-b][1,2,5]triazonine-10-carboxamide], for which the EC50 in the data set on HIV-1 (IIIB) amounted to 1.2 nM; in the data set on pLai RLuc reporter virus (setting [3]), 11.5 nM; in the data set on pLai RLuc reporter virus (setting [4]) it was 0.54 nM. In data set [1] (setting [2]), the half-maximal cytotoxic concentration (CC50) at 5 days came out at 11600 nM.

As to `C[C@H]1C=C[C@@H](CF)N2CN1n1cc(C(=O)NCc3ccc(F)cc3F)c(=O)c(O)c1C2=O` [Example C97, (1R,2S,5S)—N-(2,4-difluorobenzyl)-5-(fluoromethyl)-8-hydroxy-2-methyl-7,9-dioxo-2,5,7,9-tetrahydro-1,6-methanopyrido[1,2-b][1,2,5]triazonine-10-carboxamide], the EC50 worked out at 34.9 nM in the data set with HIV-1 (IIIB), 1730 nM with pLai RLuc reporter virus (setting [3]) and 14.7 nM with pLai RLuc reporter virus (setting [4]). For the same compound, in data set [1] (setting [2]), the CC50 at 5 days amounted to 9550 nM.

In the case of `C[C@H]1C=CC2(CCC2)N2CN1C(=O)c1c(O)c(=O)c(C(=O)NCc3c(F)cc(F)cc3F)cn12` [Example C104, (1′S,5′S)-8′-hydroxy-5′-methyl-7′,9′-dioxo-N-(2,4,6-trifluorobenzyl)-7′,9′-dihydro-5′H-spiro[cyclobutane-1,2′-[1,6]methanopyrido[1,2-b][1,2,5]triazonine]-10′-carboxamide], the values for the EC50 with HIV-1 (IIIB), in the data set with pLai RLuc reporter virus (setting [3]) and in the data set on pLai RLuc reporter virus (setting [4]) were 1.4 nM, 140 nM and 0.44 nM, respectively. For the same compound, the 50% cytotoxic concentration (CC50) at 5 days in data set [1] (CC50 (nM)) is 19700 nM.

In the case of `C[C@H]1[C@@H](F)C[C@H](C)N2CN1C(=O)c1c(O)c(=O)c(C(=O)NCc3ccc(F)cc3F)cn12` [Example C58, (1S,2S,4S,5S)—N-(2,4-difluorobenzyl)-4-fluoro-8-hydroxy-2,5-dimethyl-7,9-dioxo-2,3,4,5,7,9-hexahydro-1,6-methanopyrido[1,2-b][1,2,5]triazonine-10-carboxamide], the EC50 in the data set with HIV-1 (IIIB) is 1.5 nM; with pLai RLuc reporter virus (setting [3]), 294 nM; with pLai RLuc reporter virus (setting [4]), 0.28 nM. For the same compound, in data set [1] (setting [2]), the CC50 at 5 days turned out to be 11300 nM.

Take `CO[C@H]1C[C@@H](C)N2CN(C[C@H]1OC)C(=O)c1c(O)c(=O)c(C(=O)NCc3ccc(F)cc3F)cn12` [Example C39, (1S,2R,4S,5R)—N-(2,4-difluorobenzyl)-9-hydroxy-4,5-dimethoxy-2-methyl-8,10-dioxo-3,4,5,6,8,10-hexahydro-2H-1,7-methanopyrido[1,2-b][1,2,5]triazecine-11-carboxamide]: the EC50 was found to be 3.5 nM in the data set on HIV-1 (IIIB), 4.7 nM with pLai RLuc reporter virus (setting [3]) and 0.93 nM in the data set on pLai RLuc reporter virus (setting [4]). The cytotoxic concentration (CC50) at 5 days in data set [1] (setting [2]) came out at 20300 nM.

Regarding `C[C@@H]1CCCCN2CN1n1cc(C(=O)NCc3ccc(F)cc3F)c(=O)c(O)c1C2=O` [Example C13, (1S,2R)—N-(2,4-difluorobenzyl)-9-hydroxy-2-methyl-8,10-dioxo-3,4,5,6,8,10-hexahydro-2H-1,7-methanopyrido[1,2-b][1,2,5]triazecine-11-carboxamide], the EC50 with HIV-1 (IIIB) was determined as 1.3 nM; in the data set on pLai RLuc reporter virus (setting [3]), 4.07 nM; with pLai RLuc reporter virus (setting [4]), 0.25 nM. Moreover, the 50% cytotoxic concentration (CC50) at 5 days in data set [1] (setting [2]) came out at 8870 nM.

`C[C@H]1CCC2(CCOC2)N2CN1C(=O)c1c(O)c(=O)c(C(=O)NCc3c(F)cc(F)cc3F)cn12` (stereo partly drawn) [Example C86, (1′S,5′S)-8′-hydroxy-5′-methyl-7′,9′-dioxo-N-(2,4,6-trifluorobenzyl)-4,4′,5,5′,7′,9′-hexahydro-2H,3′H-spiro[furan-3,2′-[1,6]methanopyrido[1,2-b][1,2,5]triazonine]-10′-carboxamide]: the results for the EC50 in the data set on HIV-1 (IIIB), with pLai RLuc reporter virus (setting [3]) and with pLai RLuc reporter virus (setting [4]) were 0.5 nM, 14.1 nM and 0.27 nM, respectively. Further, it took 26000 nM to reach half-maximal cytotoxicity in data set [1] (CC50 (nM)) (CC50 at 5 days).

Take `CC[C@@H]1CC[C@H](C)N2CN1n1cc(C(=O)NCc3c(F)cc(F)cc3F)c(=O)c(O)c1C2=O` [Example C73, (1S,2R,5S)-2-ethyl-8-hydroxy-5-methyl-7,9-dioxo-N-(2,4,6-trifluorobenzyl)-2,3,4,5,7,9-hexahydro-1,6-methanopyrido[1,2-b][1,2,5]triazonine-10-carboxamide]: the results for the EC50 in the data set on HIV-1 (IIIB), with pLai RLuc reporter virus (setting [3]) and with pLai RLuc reporter virus (setting [4]) were 0.8 nM, 276 nM and 0.63 nM, respectively. Besides, the CC50 at 5 days in data set [1] (setting [2]) was determined as 7640 nM.

`CO[C@@H]1CC[C@H](C)N2CN1n1cc(C(=O)NCc3c(F)cc(F)cc3F)c(=O)c(O)c1C2=O` [Example C47, (1R,2R,5S)-8-hydroxy-2-methoxy-5-methyl-7,9-dioxo-N-(2,4,6-trifluorobenzyl)-2,3,4,5,7,9-hexahydro-1,6-methanopyrido[1,2-b][1,2,5]triazonine-10-carboxamide]: the EC50 in the data set with HIV-1 (IIIB) was determined as 1.8 nM; with pLai RLuc reporter virus (setting [3]), 196 nM; in the data set with pLai RLuc reporter virus (setting [4]) it was 1.71 nM. For the same compound, the half-maximal cytotoxic concentration (CC50) at 5 days in data set [1] (setting [2]) worked out at 11500 nM.

In the case of `C[C@@H]1C[C@@H](F)[C@H](C)N2CN1n1cc(C(=O)NCc3ccc(F)cc3F)c(=O)c(O)c1C2=O` [Example C53, (1S,2R,4R,5S)—N-(2,4-difluorobenzyl)-4-fluoro-8-hydroxy-2,5-dimethyl-7,9-dioxo-2,3,4,5,7,9-hexahydro-1,6-methanopyrido[1,2-b][1,2,5]triazonine-10-carboxamide], the EC50 in the data set with HIV-1 (IIIB) was found to be 1.3 nM; with pLai RLuc reporter virus (setting [3]), 350 nM; in the data set on pLai RLuc reporter virus (setting [4]) it was 0.55 nM. For the same compound, the CC50 at 5 days in data set [1] (setting [2]) turned out to be 9010 nM.

With `C[C@@H]1C/C=C\[C@H](C)N2CN1n1cc(C(=O)NCc3c(F)cc(F)cc3F)c(=O)c(O)c1C2=O` [Example C12, (1R,2S,6R,Z)-9-hydroxy-2,6-dimethyl-8,10-dioxo-N-(2,4,6-trifluorobenzyl)-3,6,8,10-tetrahydro-2H-1,7-methanopyrido[1,2-b][1,2,5]triazecine-11-carboxamide], the EC50 with HIV-1 (IIIB) was 3.4 nM; in the data set with pLai RLuc reporter virus (setting [3]), 273 nM; with pLai RLuc reporter virus (setting [4]), 0.77 nM. Also, the CC50 at 5 days in data set [1] (setting [2]) was determined as 10800 nM.
